Results on 5 molecules are retold here after ChEMBL document CHEMBL1201862, “PubChem BioAssay data set” (2004).

What all share (assay): DTP human tumour cell line panel, 48 h
Experiment [1] deals with HOP-18.
For experiment [2], the system named is KM-20L2.
The test system of experiment [3] is LXFL 529.
In experiment [4] the test system is M19-MEL.
Experiment [5] has as its system RXF 631.
Experiment [6] concerns SNB-78.

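Protocol summary: plate cells (96-well), add compound at 5 concentrations, incubate 48 h, interpolate endpoints linearly. Abbreviation: GI50, concentration required for 50% inhibition of growth.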 The source made the active and inactive calls. No stated cut-off is given here; in the data, active = GI50 up to about 1.1 µM and inactive = higher. A value given as a limit tells only on which side of the number the result lay.

Usually GI50 stands for the concentration that inhibits growth by half. Regarding `Cc1ccccc1N(CCC#N)C1=NN(C(=O)CC(=O)Nc2ccc(Cl)cc2)C(c2ccccc2)C1` (stereo not given), the GI50 in experiment [1], in experiment [2], in experiment [3], in experiment [4], in experiment [5] and in experiment [6] was > 100 µM (inactive) each time.
On to `Cc1c(C(=O)Nc2ccc(Cl)cc2)nc(N)nc1-c1cccc(Cl)c1`, for which the GI50 in experiment [1] was > 100 µM (inactive); in experiment [2], 45.4 µM (inactive); in experiment [3], > 10 µM (inactive); in experiment [4], > 100 µM (inactive); in experiment [5], 52.1 µM (inactive); in experiment [6], > 100 µM (inactive).
In the case of `Nc1c(Cl)ncnc1NCCCCCCCCCCCCNc1ncnc(Cl)c1N`, the GI50 in experiment [1] was 5.48 µM (inactive); in experiment [2] it was 7.11 µM (inactive); in experiment [3] it was 0.218 µM (active); in experiment [4] it was 2.59 µM (inactive); in experiment [5], 1.94 µM (inactive); in experiment [6], 0.137 µM (active).
On to `CN(C)c1[se]nc2c1c(=O)n(C)c(=O)n2C`, for which the GI50 in experiment [1] is 19.4 µM (inactive); in experiment [2] it was > 100 µM (inactive); in experiment [3], > 100 µM (inactive); in experiment [4], > 100 µM (inactive); in experiment [5], > 100 µM (inactive); in experiment [6], > 100 µM (inactive).
Consider `CCC1(CN(C)C)CC/C(=C\c2ccc(OC)c(OC)c2)C1=O` (stereo not given), for which the GI50 in experiment [1] is > 100 µM (inactive); in experiment [2], 51.9 µM (inactive); in experiment [3], > 92 µM (inactive); in experiment [4], > 100 µM (inactive); in experiment [5], > 100 µM (inactive); in experiment [6], > 100 µM (inactive).
